In assay [1] the test system is Mus musculus. Briefly: Antidepressant like activity in Mus musculus Kunming (mouse) assessed as reduction of immobility time at 40 mg/kg, po measured during last 4 min of 6 min test by tail suspension test (reference value: 105.7 +/- 10.03 sec). Type of assay: functional.
In assay [2] the test system is Mus musculus. Briefly: Antidepressant like activity in Mus musculus Kunming (mouse) assessed as reduction of immobility time at 40 mg/kg, po measured during last 4 min of 6 min test by forced swimming test (reference value: 183.3 +/- 12.67 sec). Type of assay: functional.

As to `COc1cc(/C=C/C(=O)NCCO)cc(OC)c1OC`, the Time amounted to 76.33 s in assay [1] and 165.5 s in assay [2].
The like results for `O=C(/C=C/c1ccccc1)NCCO` [IDROCILAMIDE] were, in that order, 25 s and 101.2 s.
Consider `O=C(/C=C/c1ccc(Br)cc1)NCCO`, for which the values for the Time in assay [1] and in assay [2] were 57 s and 119.7 s, respectively.
In the case of `COc1ccc(/C=C/C(=O)NCCO)c(OC)c1`, the Time in assay [1] is 39.67 s; in assay [2], 143.5 s.
As to `O=C(/C=C/c1ccc(F)cc1)NCCO`, the values for the Time in assay [1] and in assay [2] were 75 s and 130.8 s, respectively.
Turning to `COc1ccc(/C=C/C(=O)NCCO)cc1`, the Time in assay [1] amounted to 31.33 s; in assay [2] it was 167.5 s.
Regarding `COc1cccc(/C=C/C(=O)NCCO)c1`, the Time turned out to be 43.33 s in assay [1] and 141 s in assay [2].
For the molecule `CNCCC(Oc1ccc(C(F)(F)F)cc1)c1ccccc1` (stereo unspecified) [FLUOXETINE], the Time in assay [1] stood at 14.17 s.
For the molecule `O=C(/C=C/c1ccc(O)cc1)NCCO`, the Time in assay [1] was 71 s; in assay [2], 133.3 s.
The like results for `COc1ccc(/C=C/C(=O)NCCO)cc1OC` were, in that order, 39.33 s and 157.8 s.
With `CN(C)c1ccc(/C=C/C(=O)NCCO)cc1`, the Time in assay [1] came out at 64.67 s; in assay [2], 105.5 s.
In the case of `COc1ccccc1/C=C/C(=O)NCCO`, the Time in assay [1] was 38.67 s; in assay [2], 159.1 s.
For `O=C(/C=C/c1ccc(Cl)cc1)NCCO`, the results for the Time in assay [1] and in assay [2] were 76.67 s and 168 s, respectively.
Consider `O=C(/C=C/c1ccccc1O)NCCO`, for which the Time in assay [1] turned out to be 44.83 s; in assay [2] it was 146.7 s.
Turning to `O=C(/C=C/c1cccc(O)c1)NCCO`, the Time in assay [1] came out at 54 s; in assay [2], 102.8 s.
As for `COc1cc(/C=C/C(=O)NCCO)ccc1O`, the Time stood at 45 s in assay [1] and 55 s in assay [2].

The values are drawn from ChEMBL document CHEMBL3044559, “Synthesis and antidepressant-like action of N-(2-hydroxyethyl) cinnamamide derivatives in mice” (2011).
